Measurements as given in patent US20170327556A1, “CARTILAGE-BINDING FUSION PROTEINS” (Merrimack Pharmaceuticals, Inc., priority 2013, published 2017).

Experiments:
collagen type II = molecular target: T1, collagen type II (Homo sapiens, UniProt P02458); assay: ELISA binding of fusion proteins to collagen type II coated plates; settings: 6x-Histidine-tagged proteins, FIG. 2
T1 construct: purchased Chondrex Products, Redmond, Wash
Procedure: Specificity of proteins to collagen type II may be determined by measuring the ability of the protein to bind the collagen coated on an ELISA plate. Reacti-Bind® 96 well plates are coated overnight at 4° C. with 100 μl of collagen type II (Chondrex Products, Redmond, Wash.) with 1× supplied buffer. Plates are washed with PBS, 0.05% Tween-20 (PBST) and blocked for 1 hour at room temperature with 100 μl of Protein-Free Blocking Buffer (Pierce, Thermo Scientific). Plates are then washed with PBST and tapped dry. 50 μL, of protein in a dilution series is added to the wells and incubated for 1 hour at room temperature. The protein dilution series starts from 100 μM and includes ten additional three-fold dilutions in PBS and one blank (PBS). After plates are washed in PBS, 50 μL, of anti-human IGF-1 (Abcam) at 1:250 in PBST is added and plates are incubated for 1 hour rotating at room temperature. The plates are then washed with PBST and 100 μL, of 1:1000 anti-Rabbit-HRP (Cell Signaling Technology) in PBST for 1 hour at room temperature. […] The absorbance is measured at 450 nm and the resulting data is analyzed using GraphPad Prism®.
The binding of two anticipated type II collagen binding fusion proteins, GF-Fus5 (6x-Histidine-tagged) and GF-Fus6 (6x-Histidine-tagged) was measured as described above.

[1] = ELISA binding of fusion proteins to heparan sulfate coated plates; settings: 6x-Histidine-tagged proteins, FIG. 1A
Procedure: The specificity of binding of fusion proteins to the polysaccharides heparan sulfate and chondroitin sulfate may be determined by measuring the ability of the proteins to bind polysaccharides coated on an ELISA plate. Heparin Binding Plates (BD Biosciences) are coated with 50 μl of 2-10 μg/mL concentration of heparan sulfate or chondroitin sulfate (Sigma-Aldrich®) and incubated overnight at room temperature. Plates are washed with PBS and blocked with 250 μl of 0.2% gelatin in PBS for 1 hour at 37 C. Plates are then washed with PBS and tapped dry. 50 μl of protein in a dilution series is added to the wells and incubated for 2 hours at 37 C. The protein dilution series starts from 100 nM and includes ten additional three-fold dilutions in PBS, 0.2% gelatin and one blank (PBS, 0.2% gelatin only). After the plates are washed in PBS, 50 μl of anti-human IGF-1 (Abcam) at 1:250 in PBST is added and the plates are incubated for 1 hour rotating at room temperature. Plates are washed with PBST and 100 μl of 1:1000 anti-Rabbit-HRP (Cell Signaling Technology®) in PBST is added to each well and the plate is incubated for 1 hour at room temperature. […] The absorbance is measured at 450 nm and the resulting data is analyzed using GraphPad Prism® (GraphPad Software, San Diego, Calif.). […]

[2] = system: human ankle and knee cartilage explants; assay: In vitro joint disease model, explanted human cartilage: ^35S-sulfate incorporation; format: cell-based; settings: for sulfated matrix biosynthesis in the absence of cytokines, 16 day combination with Dexamethasone: FIG. 14E black bars; for ^35S-sulfate incorporation, 16 D treatment: protein 16 days in combination with Anti-Infl-1, cytokines, versus Disease control
Procedure: Human cartilage explants are harvested from the knee and ankle of human cadaver donors within 24 hours postmortem. Joints are aseptically dissected by a pathologist to assess gross cartilage morphology by the modified Collins scale (Kuettner, et al., Cartilage degeneration in different human joints. Osteoarthritis Cartilage. 2005; 13(2):93-103) and only grade 0 or 1 joints are used. Full-thickness knee cartilage surfaces are harvested from the femoral-patellar groove and chondyles using a scalpel. Full thickness ankle cartilage is harvested from the dome of talus, proximal area under dome of talus, head of the talus, tibial malleolus and fibular malleolus using a scalpel. Using a 4 mm diameter disposable biopsy punch, full thickness cartilage cores are punched from the cartilage surfaces keeping the superficial zone intact and used as explants in culture.
Explants are cultured in 96-well plates in 300 μL of low glucose DMEM (1× Gibco 11885-084) with added Penicillin-Streptomycin (1×, Gibco 15140-122), ascorbic acid (20 μg/mL, Sigma A4403), proline (400 μM, Sigma P5607-256), non-essential amino acids (1×, Sigma M7145), and HEPES ([…], Gibco 15630-080). Explants from 2-3 donors (4-6 explants per donor) are used for each treatment condition for a total explant number of 12-18 per condition. Donor ages were: 67 year male ankle, 71 year male ankle, 76 year female ankle, 59 year male knee, 34 year male knee, and 63 year female knee. Medium is changed every 2 days. On day 14, the medium is supplemented with 5 μCi/mL of ^35S-sodium sulfate (Perkin Elmer NEX041H005MC, 5 mCi).
Time points are taken at day 16 as follows. Explant tissue is washed four times for 30 min each (2 hr total) in 1 mM unlabeled sodium sulfate in PBS. Each explant is weighed wet and frozen at −20° C. until digestion. Tissue digestion is performed with Proteinase K (Roche cat #3115879001) and each explant is digested in 1 mL 500 μg/mL Proteinase K in 50 mM Tris-HCL, 1 mM calcium chloride pH=8.0 buffer at 60° C. overnight. Measurement of sGAG content and DNA content is performed using standard assay methods such as those described in Hoemann, 2004, Methods in Molecular Medicine: Cartilage and Osteoarthritis. Totowa, N.J.: Humana Press Inc.; p. 127-52. ^35S-sulfate content of the digested cartilage explants is quantified by mixing 20 μL of digest with 250 μL of scintillation fluid (Perkin Elmer cat #1200-439) and counting with A WALLAC 1450 MICROBETA TRILUX scintillation counter.
Treatments were given at the following concentrations: GF-Fus1 13.3 nM=135 ng/mL; and GF-Fus3 13.3 nM=181 ng/mL; Dexamethasone 100 nM=39.2 ng/mL. Growth factor and steroid treatment conditions included the cytokines TNF-alpha (R&D Systems, Cat#210-TA, 25 ng/mL), IL-6 (R&D Systems, Cat#206-IL, 50 ng/mL), and IL-6R alpha (R&D Systems, Cat#227-SR, 250 ng/mL) which were supplied in each medium change. GF-Fus1 and GF-Fus3 were added to fresh medium for either the first 8 days (8 D) or the entire 16 day culture duration (16 D), whereas Dexamethasone was added for the entire 16 days in all cases. Controls were either no cytokines (Healthy) or with cytokines alone (Disease). The outcomes measured from the cartilage explants at day 16 were ^35S-sulfate incorporation, DNA, and sGAG content, and sGAG released to media for all media changes.

T1 sequence (P02458 182-1241 limits assumed): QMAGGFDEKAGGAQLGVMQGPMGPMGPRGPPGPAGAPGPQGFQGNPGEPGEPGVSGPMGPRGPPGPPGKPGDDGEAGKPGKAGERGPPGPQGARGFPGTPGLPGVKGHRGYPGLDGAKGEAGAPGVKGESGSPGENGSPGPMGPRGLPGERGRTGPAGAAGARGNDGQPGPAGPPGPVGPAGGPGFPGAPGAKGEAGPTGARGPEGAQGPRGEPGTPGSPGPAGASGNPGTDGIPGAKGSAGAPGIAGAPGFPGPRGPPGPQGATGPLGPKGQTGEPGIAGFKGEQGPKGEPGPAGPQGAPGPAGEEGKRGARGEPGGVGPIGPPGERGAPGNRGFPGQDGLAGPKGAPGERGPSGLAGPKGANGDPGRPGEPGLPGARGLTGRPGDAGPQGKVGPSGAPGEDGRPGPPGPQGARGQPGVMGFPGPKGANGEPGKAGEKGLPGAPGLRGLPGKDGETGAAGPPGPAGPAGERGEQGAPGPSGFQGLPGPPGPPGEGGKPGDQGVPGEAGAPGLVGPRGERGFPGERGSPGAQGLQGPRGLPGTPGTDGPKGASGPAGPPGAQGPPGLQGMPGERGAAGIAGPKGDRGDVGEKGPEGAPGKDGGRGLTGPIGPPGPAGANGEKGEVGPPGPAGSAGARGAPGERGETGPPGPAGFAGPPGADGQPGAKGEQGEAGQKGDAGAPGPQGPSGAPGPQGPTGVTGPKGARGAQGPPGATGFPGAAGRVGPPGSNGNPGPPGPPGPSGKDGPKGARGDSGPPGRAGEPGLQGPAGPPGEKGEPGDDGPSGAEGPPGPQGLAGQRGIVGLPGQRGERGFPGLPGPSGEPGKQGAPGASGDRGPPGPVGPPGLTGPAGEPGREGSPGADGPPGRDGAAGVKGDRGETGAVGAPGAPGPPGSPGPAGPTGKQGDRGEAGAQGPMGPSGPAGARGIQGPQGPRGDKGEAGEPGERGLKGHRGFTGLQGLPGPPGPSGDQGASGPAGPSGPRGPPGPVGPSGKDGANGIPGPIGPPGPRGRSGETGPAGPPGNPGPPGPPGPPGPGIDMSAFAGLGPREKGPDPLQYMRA

Substance	binding to collagen type II (collagen type II)	binding to heparan sulfate [1]	synthesis of new sulfated cartilage matrix (^35S-sulfate incorporation) ([2]; 13.3 nM, 16 days with cytokines, with and without Dexamethasone, versus Disease)	sulfated matrix biosynthesis in the absence of cytokines, 16 day combination with Dexamethasone ([2]; human knee chondyle cartilage)	^35S-sulfate incorporation, 16 D treatment ([2]; FIGS. 14A-D)	^35S-sulfate incorporation, 8 D treatment ([2]; protein first 8 days only, Anti-Infl-1 16 days, cytokines, measured final 48 hours of 16 day culture, FIGS. 14A-D)	sulfated matrix biosynthesis in the absence of cytokines, protein removed for the final 8 days ([2]; with Dexamethasone 16 days, human knee chondyle cartilage, FIG. 14E white bars)
GF-Fus6: IGF-1(LR3) fused to CNA344 CB domain	binding more strongly	–	–	–	–	–	–
GF-Fus3: C-terminal fusion IGF-1(LR3)-PRELP heparin binding domain	–	bound	upregulates	restores sulfated matrix biosynthesis to a level at or above healthy controls	stimulated	equivalent or superior potency to the continuously delivered proteins	sustains sulfated matrix biosynthesis at the level equivalent to continuous 16 day treatment
GF-Fus1: IGF-1 variant polypeptide Long [R^3]-IGF-1, no fused binding domain; used 6x-Histidine-tagged as control [reference compound]	–	–	–	restores sulfated matrix biosynthesis to a level at or above healthy controls	stimulated	–	–
GF-Fus5: IGF-1(LR3) fused to CNA35 CB domain	bound to collagen type II	–	–	–	–	–	–
